# Results published in DBAASP.
# Key:
# Experiment in all cases: ≥ marks a high value that may be exact or a test limit, other limits are often not marked, values filed in µg/mL are converted to µM
# [1] = tested on: Candida krusei ATCC 6258
# [2] = tested on: Enterococcus faecalis CECT 481
# [3] = tested on: Staphylococcus aureus MR
# [4] = tested on: Candida glabrata ATCC 90030
# [5] = tested on: Streptococcus agalactiae CECT 183T
# [6] = tested on: Escherichia coli CECT 434
# [7] = tested on: Staphylococcus aureus CECT 435
# [8] = tested on: Staphylococcus aureus NCTC 10788
# [9] = tested on: Escherichia coli NCTC 10418
# [10] = tested on: Staphylococcus aureus NCTC 12493
# [11] = tested on: Pseudomonas aeruginosa ATCC 27853
# [12] = tested on: Candida albicans NCTC 1467
# [13] = tested on: Klebsiella pneumoniae ATCC 43816
# [14] = tested on: Escherichia coli BL21
# [15] = tested on: Bacillus subtilis 168
# [16] = tested on: Xanthomonas oryzae pv. oryzae
# [17] = tested on: Pseudomonas syringae pv. tomato DC3000
# [18] = tested on: Clavibacter michiganensis subsp. michiganensis
# [19] = tested on: Xanthomonas campestris pv. holcicola
# [20] = tested on: Ralstonia solanacearum
# [21] = tested on: Escherichia coli UB1005
# [22] = tested on: Pseudomonas aeruginosa H547
# [23] = tested on: Pseudomonas aeruginosa H744
# [24] = tested on: Pseudomonas aeruginosa Z61
# [25] = tested on: Burkholderia cepacia ATCC 25416
# [26] = tested on: Pseudomonas aeruginosa K799
# [27] = tested on: Pseudomonas aeruginosa H374
# [28] = tested on: Salmonella enterica subsp. enterica serovar Typhimurium ATCC 14028s
# [29] = tested on: Staphylococcus aureus ATCC 33591
# [30] = tested on: Acinetobacter baumannii ATCC BAA-1605
# [31] = tested on: Klebsiella pneumoniae ATCC 700603
# [32] = tested on: Acinetobacter baumannii ATCC 19606
# [33] = tested on: Acinetobacter baumannii CR17
# [34] = tested on: Escherichia coli ATCC 25922
# [35] = tested on: Enterococcus faecium ATCC 700221
# [36] = tested on: Salmonella enterica subsp. enterica serovar Typhimurium ATCC 14028
# [37] = tested on: Streptococcus agalactiae ATCC 27956
# [38] = tested on: Streptococcus dysgalactiae subsp. dysgalactiae ATCC 27957
# [39] = tested on: Enterococcus faecalis ATCC 29212
# [40] = tested on: Bacillus cereus ATCC 10876
# [41] = tested on: Streptococcus equi subsp. zooepidemicus ATCC 43079
# [42] = tested on: Staphylococcus aureus ATCC 6538
smiles,measurement,setting,value
CC[C@H](C)[C@H](NC(=O)CNC(=O)[C@H](CCC(N)=O)NC(=O)[C@@H](NC(=O)[C@@H]1CCCN1C(=O)CNC(=O)[C@H](CC(=O)O)NC(=O)CNC(=O)[C@H](CCCCN)NC(=O)[C@H](CC(C)C)NC(=O)[C@@H](NC(=O)[C@H](CS)NC(=O)[C@@H](NC(=O)[C@H](C)NC(=O)[C@H](CCCCN)NC(=O)[C@@H](NC(=O)[C@H](C)N)[C@@H](C)O)C(C)C)C(C)C)C(C)C)C(=O)N[C@H](C(=O)N[C@@H](CC(N)=O)C(=O)N[C@@H](Cc1ccccc1)C(=O)O)[C@@H](C)CC [ATKAVCVLKGDGPVQGIINF],MIC,[1],3.94 µM
same,MIC,[2],7.88 µM
same,MIC,[3],7.88 µM
same,MIC,[4],≥ 126 µM
same,MIC,[5],7.88 µM
same,MIC,[6],31.5 µM
same,MIC,[7],7.88 µM
CC[C@H](C)[C@@H]1NC(=O)[C@H](CC(C)C)NC(=O)[C@@H](NC(=O)[C@H](Cc2ccccc2)NC(=O)[C@H](CC(C)C)NC(=O)[C@H](CCCCN)NC(=O)[C@H](Cc2ccc(O)cc2)NC(=O)[C@H](CC(C)C)NC(=O)[C@@H](NC(=O)[C@H](CCCCN)NC(=O)[C@@H](NC(=O)[C@@H](NC(=O)[C@H](C)NC(=O)CNC(=O)[C@H](CC(C)C)NC(=O)[C@H](C)NC(=O)[C@@H](N)Cc2ccccc2)C(C)C)[C@@H](C)O)C(C)C)CSSC[C@@H](C(=O)O)NC(=O)[C@H](CCCCN)NC(=O)[C@H](CCCN=C(N)N)NC(=O)[C@H]([C@@H](C)O)NC1=O [FALGAVTKVLYKLFCLITRKC],MIC,[8],4 µM
same,MIC,[9],≥ 128 µM
same,MIC,[10],8 µM
same,MIC,[11],> 128 µM
same,MIC,[12],≥ 64 µM
same,MIC,[13],≥ 128 µM
CC[C@H](C)[C@H](NC(=O)CNC(=O)[C@H](C)NC(=O)CN)C(=O)NCC(=O)N1CCC[C@H]1C(=O)NCC(=O)N[C@@H](Cc1cnc[nH]1)C(=O)N[C@@H](CCCN=C(N)N)C(=O)N[C@@H](CCCN=C(N)N)C(=O)N[C@H](C(=O)N[C@@H](Cc1c[nH]c2ccccc12)C(=O)N[C@@H](CCCN=C(N)N)C(=O)N[C@@H](CCCN=C(N)N)C(=O)N[C@@H](Cc1c[nH]c2ccccc12)C(=O)N1CCC[C@H]1C(=O)N[C@@H](CCCN=C(N)N)C(=O)N[C@@H](CCCN=C(N)N)C(=O)N[C@@H](CCCN=C(N)N)C(=O)N[C@@H](Cc1c[nH]c2ccccc12)C(=O)N[C@@H](CCCN=C(N)N)C(=O)O)[C@@H](C)O [GAGIGPGHRRTWRRWPRRRWR],MIC,[14],16 µM
same,MIC,[15],16 µM
same,MIC,[16],4 µM
same,MIC,[17],4 µM
same,MIC,[18],16 µM
same,MIC,[19],16 µM
same,MIC,[20],8 µM
CC[C@H](C)[C@H](NC(=O)CNC(=O)[C@@H](NC(=O)[C@H](CCCCN)NC(=O)[C@H](CCCCN)NC(=O)[C@@H](NC(=O)[C@H](Cc1ccccc1)NC(=O)[C@H](CCCCN)NC(=O)[C@H](CCCCN)NC(=O)[C@H](Cc1c[nH]c2ccccc12)NC(=O)[C@H](CCCCN)NC(=O)[C@@H](N)CCCCN)[C@@H](C)CC)[C@@H](C)CC)C(=O)NCC(=O)N[C@@H](C)C(=O)N[C@H](C(=O)N[C@@H](CC(C)C)C(=O)N[C@H](C(=O)N[C@H](C(=O)N1CCC[C@H]1C(=O)NCC(=O)N[C@@H](C)C(=O)N[C@@H](CCCCN)C(=O)N[C@@H](CCCCN)C(=O)O)[C@@H](C)O)[C@@H](C)O)C(C)C [KKWKKFIKKIGIGAVLTTPGAKK],MIC,[21],1.57 µM
same,MIC,[22],6.3 µM
same,MIC,[23],1.57 µM
same,MIC,[24],12.6 µM
same,MIC,[25],25.2 µM
same,MIC,[26],25.2 µM
same,MIC,[27],3.15 µM
same,MIC,[28],1.57 µM
CC[C@H](C)[C@H](NC(=O)[C@H](CCCCN)NC(=O)[C@H](CCCN=C(N)N)NC(=O)[C@H](Cc1ccccc1)NC(=O)[C@H](CC(C)C)NC(=O)[C@H](CCCN=C(N)N)NC(=O)[C@@H](N)CCCCN)C(=O)N[C@@H](CC(C)C)C(=O)N[C@@H](CCCCN)C(=O)N[C@@H](Cc1ccc(O)cc1)C(=O)N[C@@H](CC(C)C)C(N)=O [KRLFRKILKYL],MIC,[29],5.75 µM
same,MIC,[11],11.5 µM
same,MIC,[30],3.04 µM
same,MIC,[31],5.75 µM
same,MIC,[32],3.04 µM
same,MIC,[33],16.1 µM
same,MIC,[34],11.5 µM
same,MIC,[35],5.75 µM
CC[C@H](C)[C@H](NC(=O)[C@H](CC(C)C)NC(=O)[C@H](CC(N)=O)NC(=O)CNC(=O)[C@H](Cc1ccccc1)NC(=O)[C@@H](NC(=O)[C@H](CCCN=C(N)N)NC(=O)[C@@H](NC(=O)[C@H](CC(C)C)NC(=O)[C@H](CCC(N)=O)NC(=O)[C@H](Cc1ccc(O)cc1)NC(=O)[C@@H](N)Cc1c[nH]c2ccccc12)[C@@H](C)CC)[C@@H](C)O)C(=O)N[C@@H](Cc1cnc[nH]1)C(=O)N[C@@H](CCC(N)=O)C(=O)N[C@@H](CCCCN)C(=O)N[C@@H](Cc1ccc(O)cc1)C(=O)N[C@@H](CCCN=C(N)N)C(=O)N[C@@H](CCCCN)C(=O)N[C@@H](CC(C)C)C(=O)N[C@@H](CC(C)C)C(=O)N[C@@H](CCC(=O)O)C(=O)N[C@@H](C)C(=O)N[C@@H](Cc1ccc(O)cc1)C(=O)N[C@@H](CCCN=C(N)N)C(=O)N[C@@H](CCCCN)C(=O)N[C@@H](CC(C)C)C(=O)N[C@@H](CCCN=C(N)N)C(=O)N[C@@H](CC(=O)O)C(=O)O [WYQLIRTFGNLIHQKYRKLLEAYRKLRD],MIC,[36],> 8.83 µM
same,MIC,[37],11 µM
same,MIC,[38],11 µM
same,MIC,[11],> 8.83 µM
same,MIC,[39],0.552 µM
same,MIC,[40],1.66 µM
same,MIC,[41],11 µM
same,MIC,[42],0.414 µM
